Assay results: US20090123419A1, “TREATMENT OF UTERINE CANCER AND OVARIAN CANCER WITH A PARP INHIBITOR ALONE OR IN COMBINATION WITH ANTI-TUMOR AGENTS” (BiPar Sciences, priority 2007, published 2009)

Columns and labels:
[1] = in vivo
Procedure: The protocol has been amended to evaluate BA in combination with chemotherapy in specific tumor types.
BA Dosing: • Twice weekly; i.v. infusion • Standard 3+3 design for BA dose escalation • Dose levels studied: 2.0, 2.8, 4.0, 5.6, 8.0, and up to 11.2 mg/kg
Safety, tolerability and MTD of each combination

[2] = tested on: human tumor cells including breast, colon, prostate, cervix, lung, and ovarian cancers; assay: In vitro activity of BA against cancer cells; format: cell-based
[3] = Tissue distribution of BA; format: in vivo
PARP = PARP activity in tissue samples from OVCAR-3 xenograft model; format: in vivo, SCID mice; details: after a single dose of BA; for effect on PARP activity in xenograft tissue samples: FIG. 2
From the text: The human OVCAR-3 (NIH-OVCAR-3) ovarian adenocarcinoma utilized in the study is maintained in athymic nude mice by serial engraftment. The human SW620 colon adenocarcinoma utilized in the study is maintained in nude mice by serial engraftment.
Whole blood is collected into EDTA vacutainers and human PBMCs are obtained by BD Vacutainer™ CPT™ Cell Preparation kit according to the manufacturer's instructions (BD Vacutainer™, REF 362760). Tumor samples are collected in a sterile container and placed immediately on ice. Within 30 minutes, tumor samples are snap-frozen in liquid nitrogen and stored at −80° C. until homogenized for analysis. The specimen is defrosted on ice and the wet weight is documented. The tissue is homogenized using isotonic buffer [7 mmol/L HEPES, 26 mmol/L KCl, 0.1 mmol/L dextran, 0.4 mmol/L EGTA, 0.5 mmol/L MgCl2, 45 mmol/L sucrose (pH 7.8)]. The homogenate is kept on ice throughout the process, and homogenization is done in 10-second bursts to prevent undue warming of the sample. Unless assayed on the day of homogenization, samples are refrozen to −80° C. and stored at this temperature until analyzed.
Cell preparations are defrosted rapidly at room temperature and washed twice in ice-cold PBS. […] Maximally stimulated PARP activity is measured in replicate samples of 20,000 cells in a reaction mixture containing […] NAD+ and 10 mg/mL oligonucleotide in a reaction buffer of 100 mmol/L Tris-HCl, 120 mmol/L MgCl2 (pH 7.8) in a final volume of […] as described previously (24) at 26° C. in an oscillating water bath. […] Purified PAR standards are loaded onto each membrane ([…] monomer equivalent) to generate a standard curve and allow quantification. […] Chemiluminesence detected during a 5-minute exposure is measured using a Fuji LAS3000 UV Illuminator (Raytek, Sheffield, United Kingdom) and digitized using the imaging software (Fuji LAS Image version 1.1, Raytek). The acquired image is analyzed using Aida Image Analyzer (version 3.28.001), and results are expressed in LAU/mm^2. […]

[4] = tested on: cervical adenocarcinoma Hela cells; assay: BrdU cell proliferation assay in Hela cells; format: cell-based, human; details: BA at various concentrations, FIG. 6
Procedure: The effect of BA on the proliferation of cervical adenocarcinoma Hela cells is examined. Cell proliferation is assessed by BrdU assay as described herein.
Hela cell is an immortal cell line used in medical research. The cell line was derived from cervical cancer cells. HeLa S3 is a clonal derivative of the parent HeLa line. The HeLa S3 clone has been very useful in the clonal analysis of mammalian cell populations relating to chromosomal variation, cell nutrition, and plaque-forming ability. HeLa cells have been reported to contain human papilloma virus 18 (HPV-18) sequences. Cells are cultured according to the standard protocol (ATCC) in the art. Briefly: 1. Remove and discard culture medium. 2. […] 3. Add 2.0 to 3.0 ml of Trypsin-EDTA solution to flask and observe cells under an inverted microscope until cell layer is dispersed (usually within 5 to 15 minutes). Cells that are difficult to detach may be placed at 37° C. to facilitate dispersal. 4. Add 6.0 to 8.0 ml of complete growth medium and aspirate cells by gently pipetting. 5. Add appropriate aliquots of the cell suspension to new culture vessels. 6. Incubate cultures at 37° C.
BrdU assay is well known in the art. […] The immune complexes are detected by the subsequent substrate reaction via chemiluminescent detection (based on Cell Proliferation ELISA, BrdU Chemiluminescence Protocol from Roche). […]

[5] = Clinical safety experience with BA to date; format: in vivo, human
normal cells = assay: Toxic effects of BA in normal cells; format: cell-based

## NC(=O)c1ccc(I)c([N+](=O)[O-])c1 [BA, 4-iodo-3-nitrobenzamide]
[1]
  potentiation of known toxicities or increased frequency of expected toxicities of cytotoxic regimens: no evidence
[2]; in vitro, breast, colon, prostate, cervix, lung, and ovarian cancers
  proliferation of human tumor cells: inhibits the proliferation
[2]; including drug resistant cell lines
  activity against cancer cells in vitro: active against a broad range of cancer cells
[3]; in vivo
  blood-brain barrier crossing: known to cross the blood-brain barrier
[3]; including the brain and cerebrospinal fluid (CSF)
  tissue distribution: distributes rapidly and widely into tissues
PARP
  effect on PARP activity in xenograft tissue samples: inhibitory effect
PARP; listed as 4-iodo-3-nitrobenzamide
  effect on PARP activity in xenograft tissue samples: inhibition of PARP
PARP; hours of observation
  duration of inhibitory effect on PARP activity: at least 8 hours
[4]
  proliferation of cervical adenocarcinoma Hela cells: inhibits proliferation
[5]
  safety and tolerability: safe and well-tolerated
  serious adverse events or grade 3 or 4 toxicities associated with BA: no serious adverse events or grade 3 or 4 toxicities
Normal cells
  toxic effects in normal cells: without exerting toxic effects in normal cells
